Values after ≈ are worked out from the molar mass of the structure shown. Like-named read-outs stand apart in the source and are kept apart here.
Assays:
[1] = tested on: Escher. coli NIHJ; experiment: anti-bacterial activity, MIC, Escher. coli NIHJ; assay type: cell-based; details: Escherichia coli, inoculum size 10^6 CFU/ml
Excerpt: (§1) Test bacterium MIC (μg/ml) Inoculum size 10^6 CFU/ml

[2] = tested on: Pseud. aeruginosa EP-01; experiment: anti-bacterial activity, MIC, Pseud. aeruginosa EP-01; assay type: cell-based; details: Pseudomonas aeruginosa, EP01, inoculum size 10^6 CFU/ml
Excerpt: as §1

[3] = tested on: Morganella morganii EP-14; experiment: anti-bacterial activity, MIC, Morganella morganii EP-14; assay type: cell-based; details: EP14, inoculum size 10^6 CFU/ml
Excerpt: as §1

[4] = tested on: Kleb. pneumoniae EK-6; experiment: anti-bacterial activity, MIC, Kleb. pneumoniae EK-6; assay type: cell-based; details: Klebsiella pneumoniae, EK6
Excerpt: as §1

[5] = tested on: Ser. marcescens ES-75; experiment: anti-bacterial activity, MIC, Ser. marcescens ES-75; assay type: cell-based; details: Serratia marcescens, ES75
Excerpt: as §1

[6] = tested on: Staph. aureus 209-P; experiment: anti-bacterial activity, MIC, Staph. aureus 209-P; assay type: cell-based; details: Staphylococcus aureus, inoculum size 10^6 CFU/ml
Excerpt: as §1

[7] = Acute toxicity, LD50 (mouse, intravenous injection); details: in vivo
Excerpt: Acute toxicity [LD50 (mouse, intravenous injection)] of the following compounds was more than 3 g/kg, respectively.

[8] = Kleb. pneumoniae EK-6, inoculum size 10^6 CFU/ml, read-out: MIC
[9] = Ser. marcescens ES-75, inoculum size 10^6 CFU/ml, read-out: MIC

Row | SMILES | MIC [1] | MIC [2] | MIC [3] | MIC [4, 8] | MIC [5, 9] | MIC [6] | MIC [5] | LD50 [7] | MIC [4]
1 | C[N+]1(CC2=C(C(=O)[O-])N3C(=O)[C@@H](NC(=O)/C(=N\OCF)c4nsc(N)n4)[C@H]3SC2)CC=C(C(N)=O)CC1 (stereo partly drawn) [Example 6, 7β-[2-(5-Amino-1,2,4-thiadiazol-3-yl)-(Z)-2-fluoromethoxyiminoacetamido]-3-(4-carbamoyl-1-methyl-1,2,3,6-tetrahydropyridinio)methyl-3-cephem-4-carboxylate] | 0.05 µg/mL (≈ 0.0902 µM) | 0.8 µg/mL (≈ 1.44 µM) | 0.05 µg/mL (≈ 0.0902 µM) | 0.05 µg/mL (≈ 0.0902 µM) | 0.1 µg/mL (≈ 0.18 µM) | 1.56 µg/mL (≈ 2.81 µM) | – | – | –
2 | Nc1nc(/C(=N/OCF)C(=O)N[C@@H]2C(=O)N3C(C(=O)[O-])=C(C[n+]4cccn4CCO)CS[C@H]23)ns1 [Example 9, 7β-[2-(5-Amino-1,2,4-thiadiazol-3-yl)-(Z)-2-fluoromethoxyiminoacetamido]-3-[2-(2-hydroxyethyl)-1-pyrazolio]methyl-3-cephem-4-carboxylate] | 0.05 µg/mL (≈ 0.095 µM) | 0.8 µg/mL (≈ 1.52 µM) | 0.05 µg/mL (≈ 0.095 µM) | 0.05 µg/mL (≈ 0.095 µM) | 0.05 µg/mL (≈ 0.095 µM) | 0.4 µg/mL (≈ 0.76 µM) | – | – | –
3 | Nc1nc(/C(=N/OCF)C(=O)N[C@@H]2C(=O)N3C(C(=O)[O-])=C(C[n+]4ccc5n4CCOC5)CS[C@H]23)ns1 [Example 8, 7β-[2-(5-Amino-1,2,4-thiadiazol-3-yl)-(Z)-2-fluoromethoxyiminoacetamido]-3-[1-morpholino-[4,3-b]pyrazolio]methyl-3-cephem-4-carboxylate] | ≤ 0.025 µg/mL | 0.8 µg/mL (≈ 1.49 µM) | 0.05 µg/mL (≈ 0.0928 µM) | 0.05 µg/mL (≈ 0.0928 µM) | 0.05 µg/mL (≈ 0.0928 µM) | 0.4 µg/mL (≈ 0.743 µM) | – | – | –
4 | CC12CC[N+](CC3=C(C(=O)[O-])N4C(=O)[C@@H](NC(=O)/C(=N\OCF)c5nsc(N)n5)[C@H]4SC3)(CC1)CC2 [Example 2, 7β-[2-(5-Amino-1,2,4-thiadiazol-3-yl)-(Z)-2-fluoromethoxyiminoacetamido]-3-(4-methyl-1-quinuclidinio)methyl-3-cephem-4-carboxylate] | 0.05 µg/mL (≈ 0.0927 µM) | 0.8 µg/mL (≈ 1.48 µM) | 0.1 µg/mL (≈ 0.185 µM) | 0.05 µg/mL (≈ 0.0927 µM) | – | 0.8 µg/mL (≈ 1.48 µM) | 0.1 µg/mL (≈ 0.185 µM) | – | –
5 | C[N+](C)(CCC(N)=O)CC1=C(C(=O)[O-])N2C(=O)[C@@H](NC(=O)/C(=N\OCF)c3nsc(N)n3)[C@H]2SC1 [Example 5, 7β-[2-(5-Amino-1,2,4-thiadiazol-3-yl)-(Z)-2-fluoromethoxyiminoacetamido]-3-[N,N-dimethyl-N-(2-carbamoyl)ethylammonio]methyl-3-cephem-4-carboxylate] | ≤ 0.025 µg/mL | 1.56 µg/mL (≈ 2.94 µM) | 0.05 µg/mL (≈ 0.0942 µM) | ≤ 0.025 µg/mL | – | 1.56 µg/mL (≈ 2.94 µM) | 0.1 µg/mL (≈ 0.188 µM) | – | –
6 | NC(=O)C12CC[N+](CC3=C(C(=O)[O-])N4C(=O)[C@@H](NC(=O)/C(=N\OCF)c5nsc(N)n5)[C@H]4SC3)(CC1)CC2 [Example 1, 7β-[2-(5-Amino-1,2,4-thiadiazol-3-yl)-(Z)-2-fluoromethoxyiminoacetamido]-3-(4-carbamoyl-1-quinuclidinio)methyl-3-cephem-4-carboxylate] | 0.05 µg/mL (≈ 0.0879 µM) | 0.4 µg/mL (≈ 0.703 µM) | 0.05 µg/mL (≈ 0.0879 µM) | 0.05 µg/mL (≈ 0.0879 µM) | 0.1 µg/mL (≈ 0.176 µM) | 1.56 µg/mL (≈ 2.74 µM) | – | > 3000 mg/kg | –
7 | C[N+]1(CC2=C(C(=O)[O-])N3C(=O)[C@@H](NC(=O)/C(=N\OCF)c4nsc(N)n4)[C@H]3SC2)CCCC1 [Example 4, 7β-[2-(5-Amino-1,2,4-thiadiazol-3-yl)-(Z)-2-fluoromethoxyiminoacetamido]-3-(1-methyl-1-pyrrolidinio)methyl-3-cephem-4-carboxylate] | ≤ 0.025 µg/mL | 0.8 µg/mL (≈ 1.6 µM) | ≤ 0.025 µg/mL | 0.05 µg/mL (≈ 0.1 µM) | 0.05 µg/mL (≈ 0.1 µM) | 0.8 µg/mL (≈ 1.6 µM) | – | – | –
8 | Nc1nc(/C(=N/OCF)C(=O)N[C@@H]2C(=O)N3C(C(=O)[O-])=C(C[N+]45CCC(CO)(CC4)CC5)CS[C@H]23)ns1 [Example 11, 7β-[2-(5-Amino-1,2,4-thiadiazol-3-yl)-(Z)-2-fluoromethoxyiminoacetamido]-3-(4-hydroxylmethyl-1-quinuclidinio)methyl-3-cephem-4-carboxylate] | ≤ 0.025 µg/mL | 0.4 µg/mL (≈ 0.72 µM) | ≤ 0.025 µg/mL | ≤ 0.025 µg/mL | 0.1 µg/mL (≈ 0.18 µM) | 0.8 µg/mL (≈ 1.44 µM) | – | > 3000 mg/kg | –
9 | Nc1nc(/C(=N/OCF)C(=O)N[C@@H]2C(=O)N3C(C(=O)[O-])=C(C[N+](CCO)(CCO)CCO)CS[C@H]23)ns1 [Example 7, 7β-[2-(5-Amino-1,2,4-thiadiazol-3-yl)-(Z)-2-fluoromethoxyiminoacetamido]-3-[tris(2-hydroxyethyl)ammonio]methyl-3-cephem-4-carboxylate] | 0.1 µg/mL (≈ 0.177 µM) | 3.13 µg/mL (≈ 5.55 µM) | 0.1 µg/mL (≈ 0.177 µM) | 0.1 µg/mL (≈ 0.177 µM) | 0.4 µg/mL (≈ 0.71 µM) | 6.25 µg/mL (≈ 11.1 µM) | – | – | –
10 | Nc1nc(/C(=N/OCF)C(=O)N[C@@H]2C(=O)N3C(C(=O)[O-])=C(C[N+]45CCC(O)(CC4)C5)CS[C@H]23)ns1 [Example 3, 7β-[2-(5-Amino-1,2,4-thiadiazol-3-yl)-(Z)-2-fluoromethoxyiminoacetamido]-3-(4-hydroxy-1,4-methylene-1-piperidinio)methyl-3-cephem-4-carboxylate] | 0.05 µg/mL (≈ 0.0948 µM) | 0.8 µg/mL (≈ 1.52 µM) | 0.05 µg/mL (≈ 0.0948 µM) | – | 0.1 µg/mL (≈ 0.19 µM) | 0.4 µg/mL (≈ 0.758 µM) | – | > 3000 mg/kg | 0.1 µg/mL (≈ 0.19 µM)
11 | Nc1nc(/C(=N/OCF)C(=O)N[C@@H]2C(=O)N3C(C(=O)[O-])=C(C[n+]4ccc5n4CCCC5)CS[C@H]23)ns1 [Example 10, 7β-[2-(5-Amino-1,2,4-thiadiazol-3-yl)-(Z)-2-fluoromethoxyiminoacetamido]-3-[1-(2,3-tetramethylene)pyrazolio]methyl-3-cephem-4-carboxylate] | ≤ 0.025 µg/mL | 0.8 µg/mL (≈ 1.49 µM) | 0.05 µg/mL (≈ 0.0932 µM) | ≤ 0.025 µg/mL | 0.05 µg/mL (≈ 0.0932 µM) | 0.4 µg/mL (≈ 0.745 µM) | – | – | –
